According to patent publication US20240099214A1, “PLANT DEFENCE GENE EXPRESSION” (UPL Corporation Limited, priority 2021, published 2024):

How the values were obtained:
Assay type in all cases: in vivo, Tomato ecotype corbarino
set of defense genes = experiment: qRT-PCR gene expression of the set of tested defence genes in tomato leaves (relative to a-tubulin, compared to water treatment); details: for gene expression of the set of defense genes compared to TSWV treatment: 48 hours from the treatment, tomato leaves
Method: (§1) Tomato ecotype “corbarino” reported to be susceptible to TSWV infection was used in the experiment. Plants were grown in pots in a climatic chamber with a photoperiod of 16/8 hour at 25° C.
(§2) The viral strain (TSWV PV PV-0393) was utilized in the experiment. The virus was mechanically inoculated and propagated on tomato “corbarino”. The inoculum was prepared in an ice-cooled mortar grounding 1 gr of infected tomato tissue in 10 ml of Na-phosphate buffer 0.01M. The fresh prepared inoculum was stored in ice before use. Tomato plants at BBCH16 were dusted with Carborundum 600 mesh and selected leaves were rubbed with some droplets of inoculum. After 5 min. plants were sprayed with sterile water to remove the excess of inoculum and preserve the cell turgor.
(§3) Four treatments were compared: i) Mock inoculated; ii) TSWV; iii) 0.25% Laminarin; iv) 0.25% Laminarin+TSWV. In the last treatment the virus was inoculated 24 hrs after the laminarin application.
Total RNA was extracted from systemic infected tomato leaves by using the Quick-RNA Plant Kit (Zymo Research) following the manufacturer instructions. […] The RNA concentration was quantified by measuring the absorbance at 260 nm using a Nanodrop 2000 (Thermofisher). The purity of all of the RNA samples was assessed at an absorbance ratio of OD260/280 and OD260/230, while its structural integrity was checked by agarose gel electrophoresis. […]
qPCR reactions were performed with BioRad (Applied Biosystems, Foster City, CA, USA) using SYBR R Green. […] Reactions were run using the cycling parameter described previously (Reid et al., 2006) and the qPCR data were analyzed by the Ct method (Pfaffl, 2001). In order to analyze the qPCR data, a-tubulin gene was used as housekeeping to determine the relative expression level of the other genes analyzed in this work. […] The corresponding qPCR efficiencies (E) were calculated for every primer pair with the software 7300 System SDS software (Applied Biosystems, Foster City, CA, USA) according to the equation E=(10−1/slope−1)×100 (Rutledge and Stewart, 2008). […]

[1] = test system: Hypersensitive response assisting protein (gene 7, Solyc07g006570.2); experiment: qRT-PCR expression of gene 7 in tomato leaves; parameters: key to RQ1 / RQ2 / RQ3 / RQ mean: relative expression normalized to a-tubulin housekeeping gene
Method: as §1, §2, §3
(§4) Total RNA was extracted from systemic infected tomato leaves by using the Quick-RNA Plant Kit (Zymo Research) following the manufacturer instructions. The extractions were carried out using three plants after 12 h, 24 h, 48 h, 72 h, 7 days after inoculation. Leaves were instantly frozen in liquid nitrogen after cutting to avoid any deterioration of the sample as well as any defense reaction. The RNA concentration was quantified by measuring the absorbance at 260 nm using a Nanodrop 2000 (Thermofisher). The purity of all of the RNA samples was assessed at an absorbance ratio of OD260/280 and OD260/230, while its structural integrity was checked by agarose gel electrophoresis. Only high-quality RNA with OD 260/280 and OD 260/230>2 was used for subsequent steps. Single-stranded cDNA was synthesized from 1 μg of total RNA using an iScript™ Select cDNA Synthesis Kit and random hexamers as primers (Bio-Rad, Milan, Italy), according to the manufacturer's instructions. Three biological replicates were created from the 3 leaves collected to test 15 genes. Alpha tubulin was used as reference gene.
(§5) qPCR reactions were performed with BioRad (Applied Biosystems, Foster City, CA, USA) using SYBR R Green. Each reaction was performed in 20 μl containing 10 μl of 2× Power SYBR Green PCR Master Mix (Life Technologies), 0.2-0.3 μM primers and cDNA samples diluted 1:20. Each qPCR reaction was performed in triplicate. Reactions were run using the cycling parameter described previously (Reid et al., 2006) and the qPCR data were analyzed by the Ct method (Pfaffl, 2001). In order to analyze the qPCR data, a-tubulin gene was used as housekeeping to determine the relative expression level of the other genes analyzed in this work. For the determination of qPCR efficiency of each primer pairs, a standard curve was performed using the following cDNA dilutions: 1:4, 1:16, 1:64; 1:256 and 1:1024. Every measurement was made in triplicate. The corresponding qPCR efficiencies (E) were calculated for every primer pair with the software 7300 System SDS software (Applied Biosystems, Foster City, CA, USA) according to the equation E=(10−1/slope−1)×100 (Rutledge and Stewart, 2008).
(§6) The significance of the differences between the gene expressions levels were compared by one-way ANOVA (p=0.01) and the means were separated by Tukey post-hoc test using SPSS ver.26 ([…]).

[2] = test system: Tropinone reductase homolog at 1g07440-like (gene 10, Solyc06g083470.2); experiment: qRT-PCR expression of gene 10 in tomato leaves; parameters: key: relative expression normalized to a-tubulin housekeeping gene
Method: as §1, §2, §3, §4, §5, §6

laminarin
gene expression of the set of defense genes compared to TSWV treatment (set of defense genes; 0.25% laminarin + TSWV inoculated 24 hrs after laminarin application): activates the set of defense genes at higher level compared to TSWV | gene expression of the set of defense genes compared to TSWV treatment (set of defense genes; 0.25% laminarin alone): activates the set of defense genes at higher level compared to TSWV | gene expression of the tested genes, overall (set of defense genes; 72 hr): clear evidence of the laminarin effects | RQ1 ([1]; 12 hr, Laminarin + virus): 12.106 | RQ2 ([1]; 12 hr, Laminarin + virus): 0.8295 | RQ3 ([1]; 12 hr, Laminarin + virus): 10.421 | RQ mean ([1]; 12 hr, Laminarin + virus): 10.274 | RQ1 ([1]; 12 hr, Laminarin alone): 0.9749 | RQ2 ([1]; 12 hr, Laminarin alone): 0.8446 | RQ3 ([1]; 12 hr, Laminarin alone): 0.8747 | RQ mean ([1]; 12 hr, Laminarin alone): 0.8981 | RQ1 ([1]; 24 hr, Laminarin + virus): 13.380 | RQ2 ([1]; 24 hr, Laminarin + virus): 12.897 | RQ3 ([1]; 24 hr, Laminarin + virus): 10.449 | RQ mean ([1]; 24 hr, Laminarin + virus): 12.242 | RQ1 ([1]; 24 hr, Laminarin alone): 11.623 | RQ2 ([1]; 24 hr, Laminarin alone): 12.446 | RQ3 ([1]; 24 hr, Laminarin alone): 12.085 | RQ mean ([1]; 24 hr, Laminarin alone): 12.051 | gene 7 expression compared to TSWV treatment ([1]; 48 hr, 0.25% laminarin + TSWV inoculated 24 hrs later): inverted | gene 7 expression compared to TSWV treatment ([1]; 48 hr, 0.25% laminarin alone): inverted | RQ1 ([1]; 48 hr, Laminarin + virus): 0.7159 | RQ2 ([1]; 48 hr, Laminarin + virus): 0.5334 | RQ3 ([1]; 48 hr, Laminarin + virus): 0.8167 | RQ mean ([1]; 48 hr, Laminarin + virus): 0.6886 | RQ1 ([1]; 48 hr, Laminarin alone): 0.7103 | RQ2 ([1]; 48 hr, Laminarin alone): 0.7130 | RQ3 ([1]; 48 hr, Laminarin alone): 0.6351 | RQ mean ([1]; 48 hr, Laminarin alone): 0.6861 | RQ1 ([1]; 72 hr, Laminarin + virus): 19.008 | RQ2 ([1]; 72 hr, Laminarin + virus): 20.416 | RQ3 ([1]; 72 hr, Laminarin + virus): 14.535 | RQ mean ([1]; 72 hr, Laminarin + virus): 17.986 | RQ1 ([1]; 72 hr, Laminarin alone): 10.549 | RQ2 ([1]; 72 hr, Laminarin alone): 0.4677 | RQ3 ([1]; 72 hr, Laminarin alone): 11.927 | RQ mean ([1]; 72 hr, Laminarin alone): 0.9051 | gene 7 overexpression compared to TSWV treatment ([1]; 72 hr, other treatments (laminarin alone, laminarin+TSWV) versus TSWV): overexpression induced by the TSWV is higher compared to the other treatments | RQ1 ([2]; 12 hr, Laminarin + virus): 11.314 | RQ2 ([2]; 12 hr, Laminarin + virus): 15.111 | RQ3 ([2]; 12 hr, Laminarin + virus): 14.571 | RQ mean ([2]; 12 hr, Laminarin + virus): 13.665 | RQ1 ([2]; 12 hr, Laminarin alone): 10.134 | RQ2 ([2]; 12 hr, Laminarin alone): 11.716 | RQ3 ([2]; 12 hr, Laminarin alone): 14.046 | RQ mean ([2]; 12 hr, Laminarin alone): 11.966 | RQ1 ([2]; 24 hr, Laminarin + virus): 12.827 | RQ2 ([2]; 24 hr, Laminarin + virus): 10.653 | RQ3 ([2]; 24 hr, Laminarin + virus): 14.308 | RQ mean ([2]; 24 hr, Laminarin + virus): 12.596 | RQ1 ([2]; 24 hr, Laminarin alone): 13.673 | RQ2 ([2]; 24 hr, Laminarin alone): 15.462 | RQ3 ([2]; 24 hr, Laminarin alone): 14.026 | RQ mean ([2]; 24 hr, Laminarin alone): 14.387 | RQ1 ([2]; 48 hr, Laminarin + virus): 10.393 | RQ2 ([2]; 48 hr, Laminarin + virus): 11.439 | RQ3 ([2]; 48 hr, Laminarin + virus): 11.568 | RQ mean ([2]; 48 hr, Laminarin + virus): 11.133 | RQ1 ([2]; 48 hr, Laminarin alone): 14.550 | RQ2 ([2]; 48 hr, Laminarin alone): 13.402 | RQ3 ([2]; 48 hr, Laminarin alone): 19.692 | RQ mean ([2]; 48 hr, Laminarin alone): 15.882 | RQ1 ([2]; 72 hr, Laminarin + virus): 10.994 | RQ2 ([2]; 72 hr, Laminarin + virus): 19.941 | RQ3 ([2]; 72 hr, Laminarin + virus): 16.529 | RQ mean ([2]; 72 hr, Laminarin + virus): 15.821 | RQ1 ([2]; 72 hr, Laminarin alone): 28.092 | RQ2 ([2]; 72 hr, Laminarin alone): 16.708 | RQ3 ([2]; 72 hr, Laminarin alone): 22.307 | RQ mean ([2]; 72 hr, Laminarin alone): 22.369
